Our source for the melting point values is patent US9642369B2 (dated 2017).

Broadly, the melting point is the temperature of the solid-liquid transition. As to `CCOP(=O)(CCC[N+](C)(C)CCCNS(=O)(=O)c1cccc2c(N(C)C)cccc12)OCC.[Br-]`, the melting point lay within 34 to 36 °C.

In turn, `CN(C)CCCNS(=O)(=O)c1cccc2c(N(C)C)cccc12` (hydrate or solvate) had a melting point of 122 to 124 °C.
